# Assay results: paper PMC3672506, “A useful EGFR-TK ligand for tumor diagnosis with SPECT: development of radioiodinated 6-(3-morpholinopropoxy)-7-ethoxy-4-(3′-iodophenoxy)quinazoline” (Annals of Nuclear Medicine, 2013)
# Read-outs that look alike come from different tables or passages of the source.
# Experiments:
# [1] = format: in vivo; conditions: normal ddY mice; for Blood radioactivity / Bone radioactivity / Brain radioactivity / Colon radioactivity / Heart radioactivity / Intestine radioactivity / Kidney radioactivity / Liver radioactivity / Lung radioactivity / Muscle radioactivity / Pancreas radioactivity / Skin radioactivity / Spleen radioactivity / Stomach radioactivity / Thyroid radioactivity: i.v.
# Method: [^125I]PYK (37 kBq, 74 TBq/mmol) in 0.1 mL saline was injected intravenously into ddY male mice (5 weeks old, 25–30 g, n = 4) via the lateral tail vein. At the desired time (5 min—24 h) interval after administration, the animals were sacrificed by decapitation. Samples of blood and tissues of interest were excised and weighed. Radioactivity was measured using a well-type NaI(Tl) scintillation gamma counter. The results were expressed in terms of percentage of injected dose per gram of blood or tissue.
# [^125I]PYK was transported well into various organs and disappeared slowly from the blood. In the liver highest uptake and rapid clearance were observed. The lungs, kidney, heart, pancreas, spleen, and brain uptakes were similar pattern to that of the liver. Furthermore, the increase in [^125I]PYK uptake in the stomach and thyroid as deiodination parameters were not found.
# [2] = tested on: A431 tumor; experiment: SPECT/CT imaging of A431 tumor-bearing mice; format: in vivo; conditions: 24 h after injection
# Method: The mice underwent SPECT/CT studies when A431 tumors had grown to optimal size (approximately 2 weeks after inoculation). ^125I gamma camera imaging and image processing were performed using a small-animal imaging system with pinhole collimation (aperture diameter = 1 mm, focal length = 9 cm) and a 15- to 45 keV photo peak energy window (PET/SPECT/CT FX system, Gamma Medica Ideas). […] 24 h after injection, SPECT scans were performed at 64 projections over 360° (ROR = 4.5 cm, 60 s/projection). Reconstructed data from SPECT and CT were visualized and coregistered using AMIRA 3.1.
# [^125I]PYK-SPECT images of tumors were very clear without interference from radioactivity in peripheral organs.
# [3] = tested on: A431 tumor; experiment: Tumor uptake of radioiodinated ligands in A431 tumor-bearing mice; format: in vivo, balb/c nude mice; conditions: for accumulation in tumors: i.v.
# Method: A suspension of 1 × 10^7 A431 cells in 0.1 mL of medium was inoculated subcutaneously in male balb/c nude mice (4 weeks old, 20–25 g, n = 3). After approximately 2 weeks, when the solid tumor had grown to optimal size, the mice were used for tumor uptake studies. [^125I]6a–d (37 kBq, 74 TBq/mmol) in 0.1 mL of saline was injected intravenously into tumor-bearing mice via the lateral tail vein. At 1 or 24 h after administration, the animals were sacrificed. Samples of tumor were excised and weighed. Radioactivity was measured using a well-type NaI(Tl) scintillation gamma counter. The results were expressed in terms of percentage of injected dose per gram of tumor.
# [4] = A431 tumor-bearing mice, 24 h after injection
smiles,measurement,setting,value
CCOc1cc2ncnc(Oc3cccc([125I])c3)c2cc1OCCCN1CCOCC1 [[^125I]PYK],in vivo stability (deiodination: stomach and thyroid uptake),[1],good stability
same,Blood radioactivity,[1]; 5 min after injection,0.98 ± 0.61 % injected dose per gram tissu
same,Bone radioactivity,[1]; 5 min after injection,1.13 ± 0.28 % injected dose per gram tissu
same,Brain radioactivity,[1]; 5 min after injection,2.07 ± 0.07 % injected dose per gram tissu
same,Colon radioactivity,[1]; 5 min after injection,1.89 ± 0.37 % injected dose per gram tissu
same,Heart radioactivity,[1]; 5 min after injection,3.47 ± 0.29 % injected dose per gram tissu
same,Intestine radioactivity,[1]; 5 min after injection,4.57 ± 0.63 % injected dose per gram tissu
same,Kidney radioactivity,[1]; 5 min after injection,15.1 ± 1.38 % injected dose per gram tissu
same,Liver radioactivity,[1]; 5 min after injection,10.5 ± 0.92 % injected dose per gram tissu
same,Lung radioactivity,[1]; 5 min after injection,11.89 ± 2.86 % injected dose per gram tissu
same,Muscle radioactivity,[1]; 5 min after injection,1.78 ± 0.13 % injected dose per gram tissu
same,Pancreas radioactivity,[1]; 5 min after injection,6.95 ± 0.49 % injected dose per gram tissu
same,Skin radioactivity,[1]; 5 min after injection,0.68 ± 0.13 % injected dose per gram tissu
same,Spleen radioactivity,[1]; 5 min after injection,4.42 ± 0.95 % injected dose per gram tissu
same,Stomach radioactivity,[1]; 5 min after injection,2.41 ± 0.59 % injected dose per gram tissu
same,Thyroid radioactivity,[1]; 5 min after injection,0.05 ± 0.04 % injected dose per organ
same,Blood radioactivity,[1]; 15 min after injection,1.05 ± 0.08 % injected dose per gram tissu
same,Bone radioactivity,[1]; 15 min after injection,1.36 ± 0.39 % injected dose per gram tissu
same,Brain radioactivity,[1]; 15 min after injection,3.15 ± 1.22 % injected dose per gram tissu
same,Colon radioactivity,[1]; 15 min after injection,2.21 ± 0.48 % injected dose per gram tissu
same,Heart radioactivity,[1]; 15 min after injection,1.76 ± 0.89 % injected dose per gram tissu
same,Intestine radioactivity,[1]; 15 min after injection,5.57 ± 1.69 % injected dose per gram tissu
same,Kidney radioactivity,[1]; 15 min after injection,15.6 ± 1.33 % injected dose per gram tissu
same,Liver radioactivity,[1]; 15 min after injection,13.9 ± 2.47 % injected dose per gram tissu
same,Lung radioactivity,[1]; 15 min after injection,6.85 ± 1.99 % injected dose per gram tissu
same,Muscle radioactivity,[1]; 15 min after injection,0.97 ± 0.15 % injected dose per gram tissu
same,Pancreas radioactivity,[1]; 15 min after injection,5.52 ± 0.50 % injected dose per gram tissu
same,Skin radioactivity,[1]; 15 min after injection,0.91 ± 0.13 % injected dose per gram tissu
same,Spleen radioactivity,[1]; 15 min after injection,4.23 ± 0.90 % injected dose per gram tissu
same,Stomach radioactivity,[1]; 15 min after injection,3.03 ± 0.36 % injected dose per gram tissu
same,Thyroid radioactivity,[1]; 15 min after injection,0.05 ± 0.03 % injected dose per organ
same,Blood radioactivity,[1]; 30 min after injection,0.80 ± 0.07 % injected dose per gram tissu
same,Bone radioactivity,[1]; 30 min after injection,0.60 ± 0.19 % injected dose per gram tissu
same,Brain radioactivity,[1]; 30 min after injection,0.82 ± 0.33 % injected dose per gram tissu
same,Colon radioactivity,[1]; 30 min after injection,2.33 ± 0.40 % injected dose per gram tissu
same,Heart radioactivity,[1]; 30 min after injection,1.43 ± 0.16 % injected dose per gram tissu
same,Intestine radioactivity,[1]; 30 min after injection,9.11 ± 0.57 % injected dose per gram tissu
same,Kidney radioactivity,[1]; 30 min after injection,12.6 ± 2.36 % injected dose per gram tissu
same,Liver radioactivity,[1]; 30 min after injection,13.3 ± 1.83 % injected dose per gram tissu
same,Lung radioactivity,[1]; 30 min after injection,4.40 ± 1.60 % injected dose per gram tissu
same,Muscle radioactivity,[1]; 30 min after injection,1.02 ± 0.53 % injected dose per gram tissu
same,Pancreas radioactivity,[1]; 30 min after injection,3.42 ± 0.33 % injected dose per gram tissu
same,Skin radioactivity,[1]; 30 min after injection,1.02 ± 0.08 % injected dose per gram tissu
same,Spleen radioactivity,[1]; 30 min after injection,3.70 ± 1.24 % injected dose per gram tissu
same,Stomach radioactivity,[1]; 30 min after injection,3.41 ± 0.37 % injected dose per gram tissu
same,Thyroid radioactivity,[1]; 30 min after injection,0.01 ± 0.01 % injected dose per organ
same,Blood radioactivity,[1]; 1 h after injection,0.83 ± 0.16 % injected dose per gram tissu
same,Bone radioactivity,[1]; 1 h after injection,1.81 ± 2.40 % injected dose per gram tissu
same,Brain radioactivity,[1]; 1 h after injection,0.47 ± 0.29 % injected dose per gram tissu
same,Colon radioactivity,[1]; 1 h after injection,3.30 ± 0.10 % injected dose per gram tissu
same,Heart radioactivity,[1]; 1 h after injection,1.33 ± 0.23 % injected dose per gram tissu
same,Intestine radioactivity,[1]; 1 h after injection,15.84 ± 2.63 % injected dose per gram tissu
same,Kidney radioactivity,[1]; 1 h after injection,7.94 ± 0.37 % injected dose per gram tissu
same,Liver radioactivity,[1]; 1 h after injection,12.3 ± 2.45 % injected dose per gram tissu
same,Lung radioactivity,[1]; 1 h after injection,3.42 ± 0.83 % injected dose per gram tissu
same,Muscle radioactivity,[1]; 1 h after injection,0.65 ± 0.04 % injected dose per gram tissu
same,Pancreas radioactivity,[1]; 1 h after injection,2.47 ± 0.43 % injected dose per gram tissu
same,Skin radioactivity,[1]; 1 h after injection,0.99 ± 0.06 % injected dose per gram tissu
same,Spleen radioactivity,[1]; 1 h after injection,2.44 ± 0.35 % injected dose per gram tissu
same,Stomach radioactivity,[1]; 1 h after injection,4.33 ± 0.76 % injected dose per gram tissu
same,Thyroid radioactivity,[1]; 1 h after injection,0.03 ± 0.01 % injected dose per organ
same,Blood radioactivity,[1]; 3 h after injection,0.50 ± 0.13 % injected dose per gram tissu
same,Bone radioactivity,[1]; 3 h after injection,0.25 ± 0.16 % injected dose per gram tissu
same,Brain radioactivity,[1]; 3 h after injection,0.27 ± 0.05 % injected dose per gram tissu
same,Colon radioactivity,[1]; 3 h after injection,21.14 ± 5.62 % injected dose per gram tissu
same,Heart radioactivity,[1]; 3 h after injection,0.64 ± 0.25 % injected dose per gram tissu
same,Intestine radioactivity,[1]; 3 h after injection,14.82 ± 7.80 % injected dose per gram tissu
same,Kidney radioactivity,[1]; 3 h after injection,13.80 ± 9.25 % injected dose per gram tissu
same,Liver radioactivity,[1]; 3 h after injection,10.94 ± 7.67 % injected dose per gram tissu
same,Lung radioactivity,[1]; 3 h after injection,1.75 ± 0.18 % injected dose per gram tissu
same,Muscle radioactivity,[1]; 3 h after injection,1.00 ± 1.27 % injected dose per gram tissu
same,Pancreas radioactivity,[1]; 3 h after injection,2.18 ± 0.92 % injected dose per gram tissu
same,Skin radioactivity,[1]; 3 h after injection,0.47 ± 0.46 % injected dose per gram tissu
same,Spleen radioactivity,[1]; 3 h after injection,0.99 ± 0.56 % injected dose per gram tissu
same,Stomach radioactivity,[1]; 3 h after injection,0.59 ± 0.23 % injected dose per gram tissu
same,Thyroid radioactivity,[1]; 3 h after injection,0.05 ± 0.04 % injected dose per organ
same,Blood radioactivity,[1]; 6 h after injection,0.29 ± 0.03 % injected dose per gram tissu
same,Bone radioactivity,[1]; 6 h after injection,0.23 ± 0.02 % injected dose per gram tissu
same,Brain radioactivity,[1]; 6 h after injection,0.11 ± 0.03 % injected dose per gram tissu
same,Colon radioactivity,[1]; 6 h after injection,22.10 ± 7.54 % injected dose per gram tissu
same,Heart radioactivity,[1]; 6 h after injection,0.63 ± 0.21 % injected dose per gram tissu
same,Intestine radioactivity,[1]; 6 h after injection,8.53 ± 1.84 % injected dose per gram tissu
same,Kidney radioactivity,[1]; 6 h after injection,3.58 ± 0.52 % injected dose per gram tissu
same,Liver radioactivity,[1]; 6 h after injection,4.70 ± 0.36 % injected dose per gram tissu
same,Lung radioactivity,[1]; 6 h after injection,1.77 ± 0.22 % injected dose per gram tissu
same,Muscle radioactivity,[1]; 6 h after injection,0.25 ± 0.04 % injected dose per gram tissu
same,Pancreas radioactivity,[1]; 6 h after injection,1.53 ± 0.38 % injected dose per gram tissu
same,Skin radioactivity,[1]; 6 h after injection,0.75 ± 0.46 % injected dose per gram tissu
same,Spleen radioactivity,[1]; 6 h after injection,1.08 ± 0.25 % injected dose per gram tissu
same,Stomach radioactivity,[1]; 6 h after injection,0.73 ± 0.60 % injected dose per gram tissu
same,Thyroid radioactivity,[1]; 6 h after injection,0.03 ± 0.02 % injected dose per organ
same,Blood radioactivity,[1]; 24 h after injection,0.08 ± 0.04 % injected dose per gram tissu
same,Bone radioactivity,[1]; 24 h after injection,0.04 ± 0.02 % injected dose per gram tissu
same,Brain radioactivity,[1]; 24 h after injection,0.02 ± 0.06 % injected dose per gram tissu
same,Colon radioactivity,[1]; 24 h after injection,15.91 ± 6.59 % injected dose per gram tissu
same,Heart radioactivity,[1]; 24 h after injection,0.22 ± 0.04 % injected dose per gram tissu
same,Intestine radioactivity,[1]; 24 h after injection,3.76 ± 1.38 % injected dose per gram tissu
same,Kidney radioactivity,[1]; 24 h after injection,0.62 ± 0.10 % injected dose per gram tissu
same,Liver radioactivity,[1]; 24 h after injection,0.52 ± 0.10 % injected dose per gram tissu
same,Lung radioactivity,[1]; 24 h after injection,0.38 ± 0.09 % injected dose per gram tissu
same,Muscle radioactivity,[1]; 24 h after injection,0.03 ± 0.01 % injected dose per gram tissu
same,Pancreas radioactivity,[1]; 24 h after injection,0.35 ± 0.05 % injected dose per gram tissu
same,Skin radioactivity,[1]; 24 h after injection,0.17 ± 0.11 % injected dose per gram tissu
same,Spleen radioactivity,[1]; 24 h after injection,0.24 ± 0.02 % injected dose per gram tissu
same,Stomach radioactivity,[1]; 24 h after injection,0.16 ± 0.04 % injected dose per gram tissu
same,Thyroid radioactivity,[1]; 24 h after injection,0.01 ± 0.00 % injected dose per organ
same,SPECT images of tumors (in words),[2],very clear
same,tumor accumulation relative to [125I]PHY,[3]; 1 h post injection,approximately 8 folds
same,retention in tumors (in words),[3]; [4],good retention
same,accumulation in tumors,"[3]; A431 tumor-bearing mice, 1 h post injection",4.37 ± 0.65 % ID/g tissue
same,accumulation in tumors,[3]; [4],1.53 ± 0.15 % ID/g tissue
